Laboratory results as given in patent US20070049564A1 (Wyeth, priority 2005, published 2007).

What was measured:
[1] = tested on: E. coli, tet (M,S,O) Tet (M); test: In vitro activity (MIC), strain groups; conditions: E. coli, tet (M,S,O) Tet (M)
Procedure: (§1) Antimicrobial susceptibility testing. The in vitro activities of the antibiotics are determined by the broth microdilution method as recommended by the National Committee for Clinical Laboratory Standards (NCCLS) (1). Mueller-Hinton II broth (MHBII)(BBL Cockeysville, Md.) is the medium employed in the testing procedures. Microtiter plates containing serial dilutions of each antimicrobial agent are inoculated with each organism to yield the appropriate density (10^5 CFU/ml) in a 100 μl final volume. The plates are incubated for 18-22 hours at 35° C. in ambient air.
(§2) Presented in Tables I-XIII are representative compounds of Formula I which were evaluated against a panel of 40 selected gram-positive and gram-negative bacteria strains by pre-incubation in water, mouse serum or human serum. Representative compounds were first incubated in mouse serum for an hour prior to the in vitro testing against a panel of selected gram-positive and gram-negative bacteria strains. All compounds were also pre-incubated in water for an hour prior to testing as control. Representative compounds of Formula I were incubated in human serum prior to MIC determination.

E. coli [2] = test: In vitro activity (MIC) against E. coli (Table 7); type: cell-based
Staph. aureus Smith [3] = test: In vitro activity (MIC) against Staph. aureus Smith; type: cell-based; conditions: Table 6
Streptococcus spp. = test: In vitro activity (MIC), strain groups; conditions: Streptococcus spp.
Procedure: as §1, §2

Staph. aureus Smith [4] = test: In vivo activity (oral, iv; ED50) against Staph. aureus Smith in mice; conditions: mice, Table 6
Procedure: Representative examples of compounds of Formula I were tested for the oral efficacy using S. aureus Smith in mice.

Staph. = test: Range of MIC for Staph. strains, including MRSA; conditions: including MRSA, Table 1
S. aureus, tet (M) = test: In vitro activity (MIC), strain groups
Procedure: as §1
(§3) Representative compounds were first incubated in mouse serum for an hour prior to the in vitro testing against a panel of selected gram-positive and gram-negative bacteria strains. All compounds were also pre-incubated in water for an hour prior to testing as control. Representative compounds of Formula I were incubated in human serum prior to MIC determination.

E. coli #311 = test: In vivo activity (oral, iv; ED50) against E. coli in mice; conditions: mice, Table 7
From the text: . […] Smith and E. Coli #311 in mammals.
Results of the tests (MIC, oral and IV) are list in Table 7.

Enterococcus spp. = test: In vitro activity (MIC), strain groups; conditions: Enterococcus spp.
Procedure: as §1, §2

E. coli [5] = test: Range of MIC for E. coli strains; conditions: Water; Table 1
[6] = tested on: E. coli, tet(A-D), efflux; test: In vitro activity (MIC), strain groups; conditions: E. coli, tet(A-D), efflux; Mouse serum
Procedure: as §1, §3

[({[(5aR,6aS,7S,10aS)-9-(aminocarbonyl)-4,7-bis(dimethylamino)-1,8,10a,11-tetrahydroxy-10,12-dioxo-5,5a,6,6a,7,10,10a,12-octahydrotetracen-2-yl]amino}carbonyl)oxy]methyl 4-tert-butylbenzoate [Example 87]
In vitro activity (MIC) ([1]; Human serum): >64 | In vitro activity (MIC) ([1]; Mouse serum): 0.25-0.5 | In vitro activity (MIC) ([1]; water): >64 | MIC (E. coli) (E. coli [2]): >64 µg/mL | MIC (Staph aureus Smith) (Staph. aureus Smith [3]): 32 µg/mL | In vitro activity (MIC) (Streptococcus spp.; Human serum): 1-2 | In vitro activity (MIC) (Streptococcus spp.; water): 0.5-2 | ED50 SIV (Staph aureus Smith) (Staph. aureus Smith [4]; single intravenous dose): 0.83 mg/kg | ED50 SOD (Staph aureus Smith) (Staph. aureus Smith [4]; single oral dose): 12.82 mg/kg | Range of MIC, Staph (Mouse Serum) (Staph.; Mouse Serum): 32 to 64 µg/mL | Range of MIC, Staph (Water) (Staph.; Water): >64 µg/mL | In vitro activity (MIC) (S. aureus, tet (M); Human serum): 16 | In vitro activity (MIC) (S. aureus, tet (M); Mouse serum): 0.5 | In vitro activity (MIC) (S. aureus, tet (M); water): 64 | ED50 SIV (E. coli) (E. coli #311; single intravenous dose): 3.6 mg/kg | ED50 SOD (E. coli) (E. coli #311; single oral dose): 60.4 mg/kg | In vitro activity (MIC) (Enterococcus spp.; Human serum): 0.25-8 | In vitro activity (MIC) (Enterococcus spp.; Mouse serum): 0.12-0.5 | In vitro activity (MIC) (Enterococcus spp.; water): 0.25-32 | Range of MIC, E. coli (Water) (E. coli [5]): >64 µg/mL | In vitro activity (MIC) [6]: 0.25-0.5
